Entries after “also recorded” stand apart in the source; their conditions may differ. Like-named read-outs stand apart in the source and are kept apart here.
Tests used:
[1] = test system: NCCa-ATP channels in bEnd.3 cells; assay: Perforated-patch whole-cell recording of endothelial cells, Na azide-induced ATP depletion; assay type: cell-based, murine; conditions: 1 μM glibenclamide; endothelial cells exposed to hypoxic conditions
Description: Patch clamp of endothelial cells was performed using a nystatin-perforated patch technique, to maintain the metabolic integrity of the cells. The identity of the activated channel can be assessed by measurement of the “reversal potential”, the potential at which an ion channel current reverses from inward to outward. With physiologically relevant concentrations of ions intracellularly and extracellularly (high potassium inside, high sodium outside), the reversal potential can unambiguously distinguish between a K^+ channel current such as KATP, which reverses negative to −50 mV and a non-selective cation channel current such as NCCa-ATP, which reverses near 0 mV.
Cell culture. Endothelial cell cultures from human brain microvessels, human aorta (ScienCell Research Laboratories), and murine brain microvessels (bEnd.3; ATCC), were grown at low density using media and supplements recommended by suppliers.

[2] = test system: rats with hemi-cervical spinal cord contusion (SCI); assay: SCI model: lesion size; assay type: in vivo, rat
Description: (§1) SCI injury model. This study was performed in accordance with the guidelines of the Institutional Animal Care and Use Committee. Adult female Long-Evans rats (275-350 gm) were anesthetized (Ketamine, 60 mg/kg plus Xylazine, 7.5 mg/kg, i.p.). The dura at C4-5 was exposed via a left hemilaminectomy. A hemi-cervical spinal cord contusion was created using a blunt force impactor (1.3-mm impactor head driven by a 10 gm weight dropped vertically 25 mm) (Soblosky et al., 2001; Gensel et al., 2006). After SCI, animals were given 10 ml of glucose-free normal saline s.q. Rectal temperature was maintained at ˜37° C. using a servo-controlled warming blanket. Blood gases and serum glucose 10-15 min post-SCI were: pO2, 95±6 mm Hg; pCO2, 46±3 mm Hg; pH, 7.33±0.01; glucose 258±17 mg/dl in controls and pO2, 96±7 mm Hg; pCO2, 45±2 mm Hg; pH, 7.37±0.01; glucose 242±14 mg/dl in glibenclamide-treated animals.
(§2) Drug delivery. […] During the course of the project, slightly different formulations of drug were used, with the best results obtained using stock solutions made by placing 50 mg (or 25 mg) of drug into 10 ml DMSO, and infusion solutions made by placing 400 μl (or 800 μl) stock into 4.6 ml (or 4.2 ml) unbuffered saline (0.9% NaCl) and adjusting the pH to ˜8.5 using 0.1 N NaOH.
Lesion size. At 7 d post-SCI, cords were paraffin sectioned and stained with H&E. Lesion volumes were calculated from lesion areas measured on serial sections every 250 μm.
Immunohistochemistry. Cryosections were immunolabeled (Chen et al., 2003; Simard et al., 2006) using primary antibodies directed against SUR1 (Santa Cruz, C-16; 1:200; 1 h at RT, 48 h at 4° C.), SUR2 (Santa Cruz, H-80; 1:200; 1 h at RT, 48 h at 4° C.), GFAP (Sigma, C-9205; 1:500), and vimentin (Sigma, monoclonal CY3 conjugated; 1:100). Quantitative immunofluorescence was performed as described (Gerzanich et al., 2003).

[3] = test system: uninjured rats; assay: Tail tip bleeding time; assay type: in vivo, rat; conditions: for bleeding time (effect): uninjured rats infused with glibenclamide vs vehicle
Description: Bleeding times were measured using tail tip bleeding as described (Lorrain et al., 2003).

[4] = test system: recombinant MMP-2 and MMP-9; assay: Zymography, gelatinase activity of recombinant MMP; assay type: biochemical; conditions: glibenclamide 10 μM; MMP-inhibitor II 300 nM
Description: Zymography of recombinant MMP-2 and MMP-9 (Sigma) was performed as described (Sumii and Lo, 2002).

[5] = rat, in vivo
Description: as §1, §2

[6] = test system: rats with percussion-TBI; assay: Percussion-TBI model: extravasated blood in brain homogenates; assay type: in vivo, rat
Excerpt: (§3) Young adult male Long-Evans rats, 240-280 gm, were studied. Rats were anesthetized (Ketamine and Xylazine) and physiological parameters including temperature and blood gases were maintained within appropriate physiological ranges. With the head fixed in a stereotaxic frame, a 6-mm circular craniectomy was created abutting the sagittal and lambdoidal sutures. A posterior location was chosen to emphasize damage to underlying hippocampus (Vink et al., 2001; Floyd et al., 2002). […] Sham controls underwent craniectomy without percussion.

[7] = test system: rats with percussion-TBI; assay: Percussion-TBI model: lesion size and hippocampal neurons (Nissl sections); assay type: in vivo, rat; conditions: 7 days post-TBI
Excerpt: as §3

[8] = test system: rats with percussion-TBI; assay: Percussion-TBI model: spontaneous forelimb use and spontaneous vertical exploration; assay type: in vivo, rat
Excerpt: as §3
Spontaneous forelimb use (SFU) was quantified and spontaneous vertical exploration (SVE) was quantified during 7 days post-TBI. SFU measures sensorimotor asymmetry (Schallert et al., 2000) whereas SVE measures not only vestibulomotor function but also time spent in exploratory activity.

[9] = Long-Evans, rat, in vivo
[10] = test system: rats with hemi-cervical spinal cord contusion (SCI); conditions: following SCI (Simard et al., 2007); cited from earlier work
[11] = test system: rats with hemi-cervical spinal cord contusion (SCI); conditions: following SCI (Simard et al., 2007); cited from earlier work; remark: listed apart in the source
[12] = test system: rodent models of ischemic stroke; conditions: model of malignant cerebral edema; cited from earlier work
[13] = test system: cells expressing SUR1-regulated NCCa-ATP channel; conditions: cited from earlier work

## COc1ccc(Cl)cc1C(=O)NCCc1ccc(S(=O)(=O)NC(=O)NC2CCCCC2)cc1 [glibenclamide]
[1]
  block of Na azide-induced ohmic current: blocked
[2]; 24 h post-SCI, vs controls
  lesions, gliosis and myelin (GFAP and myelin labeling): smaller lesions, less reactive gliosis and better myelin preservation
[2]; 7 d post-SCI, vs controls
  lesions on hematoxylin and eosin cross sections: smaller lesions
[2]; following SCI, compared to controls (summary)
  reduction in lesion volume: 3 fold
[3]
  bleeding time (effect): no effect
[3]; listed as Glibenclamide
  bleeding time (effect): did not affect
[3]; uninjured rats, same dose (200 ng/hr), n=3-5
  tail bleeding time: 21.5 ± 3.1 s
[4]
  gelatinase activity of recombinant MMP: the same; also recorded: not affected
[5]
  blood pH: 7.37±0.01
  pCO2: 45±2 mm Hg
  pO2: 96±7 mm Hg
  serum glucose: 242 ± 14 mg/dL
[6]; 24 hr post-injury, vs vehicle
  appearance of tissue homogenates: visibly less bloody
[6]; later times (6 and 24 hr) post-TBI, vs vehicle
  increase in extravasated blood: prevented further increases in blood
[6]; ½ hr post-injury, glibenclamide 200 ng/hr s.q. vs vehicle
  volume of blood in brain homogenate: did not affect
[7]; 10 rats/group
  lesion area on coronal sections at the epicenter of injury: 4.4±0.8 mm^2
[7]; vs vehicle
  hippocampus on Nissl stained sections: sparing of hippocampus
[8]; 1, 2 and 7 days post-TBI, vs vehicle controls
  spontaneous vertical exploration (SVE): significantly greater
[8]; 2 days post-TBI
  spontaneous use of the forelimb contralateral to the injury: 16.5±3.4%
[9]
  time required to achieve 90% steady-state serum drug levels: 3 h
[10]
  capillary fragmentation and progressive secondary hemorrhage: essentially eliminates
[11]
  reduction in lesion volume: 3 fold
[12]
  mortality: by half
[13]
  oncotic (necrotic) cell death on ATP depletion: can be blocked

From patent publication US9375438B2, “Inhibitors of NCCa-ATP channels for therapy” (University of Maryland, Baltimore, priority 2007, dated 2016)
